Data set [1] has as its system IL-17 release in lymph node cultures. Description: Lymph node cell cultures from MOG35-55 immunized C57BL/6 mice, IL-17 ELISA. Format: cell-based. To be noted: Mus musculus, 72 h; MOG and IL-23, 3 days, dose-response (FIG. 13F); read-out: EC50 for inhibition of IL-17 production. As for the experimental part: FIGS. 13A-F. IL-17 levels in lymph node cells from mice immunized with myelin-derived peptides respond to cognate peptide antigens, IL-23 and RORγ ligands. (FIG. 13A) SJL/J mice were immunized by complete Freund's adjuvant (CFA) only or by Proteolipid Protein residues 139-151 (PLP139-151) emulsified in CFA. Lymph nodes were cultured for 3 days in with or without 40 μg/ml PLP in the presence or absence of OR-885. Culture media were analyzed by ELISA for IL-17. (FIGS. 13B-C) Lymph node cells from PLP-immunized SJL/J mice were cultured as before with the addition of 10 ng/ml IL-23 and 3 μM compounds. At the end of 1 day or 3 days in culture, Th-17 (CD4^+CD8^−IL17^+) cell frequency was measured by FACS (FIG. 13B) and compared to IL-17 levels in culture media (FIG. 13C). (FIGS. 13D-F) Lymph node cells from MOG35-55 immunized C57BL/6 mice were cultured for 3 days with 30 μg/ml MOG and/or 10 ng/ml IL-23. RORγ ligands were not added (FIG. 13D), or added at the beginning of the culture at a single concentration (FIG. 13E, 1 μM) or in multiple doses (FIG. 13F). […]
Overall, cultured lymph node cells that are stimulated with IL-23 and peptide antigens provide a model system to examine IL-17 production ex vivo (FIG. 13D). We analyzed a variety of RORγ ligands for their ability to regulate IL-17 (FIG. 13E). […] This potency is consistent with that measured in the CHO cell transcription assay.
Background: In an ELISA, binding on a coated surface is turned into a signal by an enzyme label.

In a further data set the test system is liver triglycerides. In words: Liver triglycerides after oral dosing in C57BL/6 mice. Format: in vivo. The method, then:
[…] A small piece of the liver (˜200 mg) was weighed and extracted to determine triglyceride content. Glycerol was liberated from liver triglycerides by hydrolysis in base. The liver fragment was incubated overnight at 55° C. in 0.35 mls of ethanolic KOH (2 parts EtOH: 1 part 30% KOH) in a closed tube. A solution of 50% ethanol in water was added to bring the volume of each tube to 1.0 ml. The solution was cleared of debris by centrifugation, and the resulting supernatant increased to 1.2 ml with further addition of 50% ethanol. Aqueous 1 M MgCl2 (215 μl) was added to 200 μl of the supernatant, and the mixture was cleared by centrifugation again after standing 10 min on ice. Glycerol levels were measured with the Sigma Free Glycerol Reagent (Sigma-Aldrich, St. Louis, Mo.) according to the manufacturer's instructions. The triglyceride concentration (in milligrams per gram of liver wet weight) was determined by assuming average molecular weight of 1000 daltons for each molecule of triglyceride.

The results in this text go back to patent US8389739B1, “Modulators of retinoid-related orphan receptor gamma” (Orphagen Pharmaceuticals, priority 2006, dated 2013).

As usually defined, the EC50 is the concentration that produces a half-maximal response.

The structures appear in SMILES notation.

As to `C[C@@H]1CC[C@@]2(OC1)O[C@H]1C[C@H]3[C@@H]4CC[C@H]5C[C@@H](O)CC[C@]5(C)[C@H]4C[C@@H](O)[C@]3(C)[C@H]1[C@@H]2C` [OR-885, 5α,20α, 22α, 25D-SPIROSTAN-3β, 12β-DIOL], the 50% effective concentration (EC50) in data set [1] is roughly 200 nM.

Take `CCN(c1ccc(C(O)(C(F)(F)F)C(F)(F)F)cc1)S(=O)(=O)c1ccc([N+](=O)[O-])cc1` [OR-1050, N-Ethyl-4-nitro-N-[4-(2,2,2-trifluoro-1-hydroxy-1-trifluoromethyl-ethyl)-phenyl]-benzenesulfonamide]: the “Liver triglycerides” value in the data set on liver triglycerides (OR-1050 100 mg/kg (50 mg/kg twice per day by gavage, corn oil) for 7 days, vehicle 34.7 ± 5.7) was 119.5 ± 18.8 mg/g. Moreover, the “liver triglycerides, in words” value in the data set with liver triglycerides (daily exposure to 100 mg/kg OR-1050, six day study) was “markedly elevated”.
